We go through two compounds from publication PMC9808420 (Biomedicine & Pharmacotherapy, 2023).

Where a name gives a salt, the structure may show the parent alone. Read-outs that look alike come from different tables or passages of the source.

One may read the EC50 as the concentration giving half of the maximal effect. The term Kd denotes the constant that tells how readily two partners part at equilibrium.

The test system of one experiment is SARS-CoV-2 pseudovirus. As to the kind of experiment: organism not typed. In kind it is cell-based. To be noted: read-out: EC50 (S).
In experiment [1] the target is SARS-CoV-2 Spike protein RBD and human ACE2 (Severe acute respiratory syndrome coronavirus 2, UniProt P0DTC2). In kind it is binding, SARS-CoV-2; human.
For the next experiment, the target named is RBD domain of S protein (Severe acute respiratory syndrome coronavirus 2, UniProt P0DTC2). As to the kind of experiment: biochemical. In kind it is binding, SARS-CoV-2.
Experiment [2] relates to VSV-G pseudotyped lentivirus. As to the kind of experiment: microbe, parasite or virus in culture. In kind it is cell-based. To be noted: read-out: EC50 (VSVG).

On to Teicoplanin, for which the EC50 (in the experiment with SARS-CoV-2 pseudovirus; in experiment [2]) was over 100 µM in each case. In experiment [1], the “Blocking of binding of SARS-CoV-2 RBD to ACE2 in vitro” value is recorded as “fail to block binding”. For the same compound, the Kd on RBD domain of S protein (read-out: KD (equilibrium dissociation constant)) was 673 µM.
As to `CN[C@H](CC(C)C)C(=O)N[C@H]1C(=O)N[C@@H](CC(N)=O)C(=O)N[C@H]2C(=O)N[C@H]3C(=O)N[C@H](C(=O)N[C@H](C(=O)O)c4cc(O)cc(O)c4-c4cc3ccc4O)[C@H](O)c3ccc(c(Cl)c3)Oc3cc2cc(c3O[C@@H]2O[C@H](CO)[C@@H](O)[C@H](O)[C@H]2O[C@H]2C[C@](C)(N)[C@H](O)[C@H](C)O2)Oc2ccc(cc2Cl)[C@H]1O` [Vancomycin hydrochloride], the 50% effective concentration (EC50) (in the experiment with SARS-CoV-2 pseudovirus (48 h); in experiment [2] (Lentivirus)) was over 100 µM throughout. The same compound displayed a dissociation constant (Kd) on RBD domain of S protein of 1600 µM.
